Results taken from patent US11707462B2, “Checkpoint kinase 1 (CHK1) inhibitors and uses thereof” (Boundless Bio, Inc., priority 2021, dated 2023).

How the values were obtained:
p-CHK1 (Ser345) = assay: AlphaLISA SureFire Ultra p-CHK1 (Ser345) cellular assay in HT29 cells; type: cell-based
Method: Example B: AlphaLisa Cellular Assay
Compound activity in cells was measured using an AlphaLISA® SureFire® Ultra™ p-CHK1 (Ser345) assay (Perkin Elmer, catalog no. ALSU-PCHK1-A10K). HT29 cells were cultured in McCoy 5A medium with 10% FBS and 1% penicillin-streptomycin and seeded to 96-well plates (Corning, catalog no. 3599). Compounds were serially diluted in DMSO over a 10-point dose range with 3-fold dilution and to each well containing cells was added compound solution. Plates were centrifuged at 1000 rpm for 30 seconds. Plates were incubated at 37° C. for 16 h. Supernatant was removed by flicking the plate against a paper towel. Wells were washed once with PBS solution. To each well was added freshly prepared lysis buffer and plates were agitated on a plate shaker at 400 rpm for 30 min. The 96-well cell plates were centrifuged at 1500 rpm for 1 minute. From each well was transferred 10 μL of the lysates to a 384-well Optiplate™ (Perkin Elmer, catalog no. 6007290). To each well was added Acceptor Mix (5 μL) and the plates were sealed and wrapped in foil. Plates were agitated on a plate shaker for 2 minutes, then incubated at room temperature for 1 h. To each well was added Donor Mix (5 μL) and the plates were sealed and wrapped in foil. Plates were agitated on a plate shaker for 2 minutes, then incubated at room temperature for 1 h. AlphaLisa signal was read on an EnVision multimode plate reader (Perkin Elmer). Data were fit to dose-response curves using XLfit (IDBS, Surrey, UK) or Prism (GraphPad Software, La Jolla, Calif., US) to calculate IC50 values for each compound tested.

[1] = target: T1, Full-length human Chk1 protein (Homo sapiens, UniProt O14757); assay: Kinase HTRF biochemical assay (HTRF KinEASE), Chk1 enzyme activity; settings: full-length human Chk1, ATP 1 mM, 60 minutes at room temperature
T1 construct: purchased Carna Biosciences, Inc. 02-117
T1 sequence (O14757 1-476): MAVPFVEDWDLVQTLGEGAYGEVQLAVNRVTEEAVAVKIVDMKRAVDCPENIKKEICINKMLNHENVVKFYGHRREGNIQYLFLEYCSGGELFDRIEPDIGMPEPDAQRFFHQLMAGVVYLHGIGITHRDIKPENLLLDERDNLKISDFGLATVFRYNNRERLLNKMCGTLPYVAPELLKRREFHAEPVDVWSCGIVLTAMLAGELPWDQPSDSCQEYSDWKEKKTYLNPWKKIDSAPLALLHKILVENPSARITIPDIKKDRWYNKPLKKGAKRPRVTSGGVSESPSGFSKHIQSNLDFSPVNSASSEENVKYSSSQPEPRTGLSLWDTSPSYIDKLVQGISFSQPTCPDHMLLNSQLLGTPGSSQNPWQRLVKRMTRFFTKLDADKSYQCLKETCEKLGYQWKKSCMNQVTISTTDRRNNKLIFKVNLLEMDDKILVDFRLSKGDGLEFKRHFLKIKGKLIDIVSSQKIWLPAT
Outline: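 Full-length human Chk1 (0.012 ng/μL) in buffer with 5 mM MgCl2 and 1 mM DTT, preincubated with compound 10 min at room temperature; reaction with 120 nM biotinylated STK substrate 1 and 1 mM ATP for 60 min at room temperature. HTRF detection via cryptate antibody/streptavidin-XL665; IC50 from 10-point duplicate curves.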

[2] = Homo sapiens, HT-29, 16 h at 37° C.

Row | IC50 (p-CHK1 (Ser345); [2]) [nM] | IC50 [1] [nM] | IC50 (p-CHK1 (Ser345); 16 h at 37° C.) [nM] | Compound
1 | 100 to 500 | 10 to 100 | – | N#Cc1cnc(Nc2cc(-c3ncccc3O[C@@H]3CC[C@H](N)C3)[nH]n2)cn1 [Example 1-63, 5-((5-(3-(((1R,3S)-3-aminocyclopentyl)oxy)pyridin-2-yl)-1H-pyrazol-3-yl)amino)pyrazine-2-carbonitrile]
2 | > 1000 | 500 to 1000 | – | N#Cc1cnc(Nc2cc(-c3ccccc3O[C@H]3CC[C@@H](N)C3)[nH]n2)cn1 [Example 2-1, 5-((5-(2-(((1S,3R)-3-aminocyclopentyl)oxy)phenyl)-1H-pyrazol-3-yl)amino)pyrazine-2-carbonitrile]
3 | 500 to 1000 | 10 to 100 | – | COc1cccc(O[C@H]2CC[C@@H](N)C2)c1-c1cc(Nc2cnc(C#N)cn2)n[nH]1 [Example 2-2, 5-((5-(2-(((1S,3R)-3-aminocyclopentyl)oxy)-6-methoxyphenyl)-1H-pyrazol-3-yl)amino)pyrazine-2-carbonitrile]
4 | ≤ 50 | ≤ 10 | – | COc1cc(F)cc(O[C@H]2CC[C@H](N)CC2)c1-c1cc(Nc2cnc(C#N)cn2)n[nH]1 [Example 2-4, 5-((5-(2-(((lr,4r)-4-aminocyclohexyl)oxy)-4-fluoro-6-methoxyphenyl)-1 H-pyrazol-3-yl)amino)pyrazine-2-carbonitrile]
5 | 100 to 500 | 10 to 100 | – | CN[C@@H]1CC[C@@H](Oc2ccc(F)c(F)c2-c2cc(Nc3cnc(C#N)cn3)n[nH]2)C1 [Example 3-1, 5-((5-(2,3-difluoro-6-(((1R,3R)-3-(methylamino)cyclopentyl)oxy)phenyl)-1H-pyrazol-3-yl)amino)pyrazine-2-carbonitrile]
6 | ≤ 50 | ≤ 10 | – | COc1cccc(O[C@H]2CCCC[C@H](N)C2)c1-c1cc(Nc2cnc(C#N)cn2)n[nH]1 [Example 3-7, 5-((5-(2-(((1S,3S)-3-aminocycloheptyl)oxy)-6-methoxyphenyl)-1H-pyrazol-3-yl)amino)pyrazine-2-carbonitrile]
7 | ≤ 50 | ≤ 10 | – | COc1cccc(O[C@@H]2CCCC[C@H](N)C2)c1-c1cc(Nc2cnc(C#N)cn2)n[nH]1 [Example 3-8, 5-((5-(2-(((1R,3S)-3-aminocycloheptyl)oxy)-6-methoxyphenyl)-1H-pyrazol-3-yl)amino)pyrazine-2-carbonitrile]
8 | ≤ 50 | ≤ 10 | – | COc1cccc(O[C@H]2CC3(C[C@@H](N)C3)C2)c1-c1cc(Nc2cnc(C#N)cn2)n[nH]1 (stereo partly drawn) [Example 3-10, 5-((5-(2-((6-aminospiro[3.3]heptan-2-yl)oxy)-6-methoxyphenyl)-1H-pyrazol-3-yl)amino)pyrazine-2-carbonitrile]
9 | – | ≤ 10 | ≤ 50 | COc1cccc(O[C@H]2CC3(C[C@@H](N)C3)C2)c1-c1cc(Nc2cnc(C#N)cn2)n[nH]1 (stereo partly drawn) [Example 3-11, 5-((5-(2-((6-aminospiro[3.3]heptan-2-yl)oxy)-6-methoxyphenyl)-1H-pyrazol-3-yl)amino)pyrazine-2-carbonitrile]
10 | > 1000 | > 1000 | – | Cc1cccc(-c2cc(Nc3cnc(C#N)cn3)n[nH]2)c1O[C@@H]1CC[C@H](N)C1 [Example 3-12, 5-((5-(2-(((1R,3S)-3-aminocyclopentyl)oxy)-3-methylphenyl)-1H-pyrazol-3-yl)amino)pyrazine-2-carbonitrile]
11 | > 1000 | 100 to 500 | – | N#Cc1cnc(Nc2cc(-c3cccc(F)c3O[C@@H]3CC[C@H](N)C3)[nH]n2)cn1 [Example 3-13, 5-((5-(2-(((1R,3S)-3-aminocyclopentyl)oxy)-3-fluorophenyl)-1H-pyrazol-3-yl)amino)pyrazine-2-carbonitrile]
12 | > 1000 | 500 to 1000 | – | N#Cc1cnc(Nc2cc(-c3cccc(Cl)c3O[C@@H]3CC[C@H](N)C3)[nH]n2)cn1 [Example 3-14, 5-((5-(2-(((1R,3S)-3-aminocyclopentyl)oxy)-3-chlorophenyl)-1H-pyrazol-3-yl)amino)pyrazine-2-carbonitrile]
13 | ≤ 50 | ≤ 10 | – | [2H]C([2H])([2H])Oc1cccc(O[C@@H]2CC[C@H](N)C2)c1-c1cc(Nc2cnc(C#N)cn2)n[nH]1 [Example 3-15, 5-((5-(2-(((1R,3S)-3-aminocyclopentyl)oxy)-6-(methoxy-d3)phenyl)-1H-pyrazol-3-yl)amino)pyrazine-2-carbonitrile]
14 | 100 to 500 | 10 to 100 | – | Cc1ccc(O[C@@H]2CC[C@H](N)C2)c(-c2cc(Nc3cnc(C#N)cn3)n[nH]2)c1F [Example 3-16, 5-((5-(6-(((1R,3S)-3-aminocyclopentyl)oxy)-2-fluoro-3-methylphenyl)-1H-pyrazol-3-yl)amino)pyrazine-2-carbonitrile]
15 | 100 to 500 | 10 to 100 | – | N#Cc1cnc(Nc2cc(-c3c(O[C@@H]4CC[C@H](N)C4)ccc(F)c3F)[nH]n2)cn1 [Example 3-18, 5-((5-(6-(((1R,3S)-3-aminocyclopentyl)oxy)-2,3-difluorophenyl)-1H-pyrazol-3-yl)amino)pyrazine-2-carbonitrile]
16 | > 1000 | 10 to 100 | – | N#Cc1cnc(Nc2cc(-c3c(O[C@@H]4CC[C@H](N)C4)ccc(Cl)c3F)[nH]n2)cn1 [Example 3-19, 5-((5-(6-(((1R,3S)-3-aminocyclopentyl)oxy)-3-chloro-2-fluorophenyl)-1H-pyrazol-3-yl)amino)pyrazine-2-carbonitrile]
17 | ≤ 50 | ≤ 10 | – | CN[C@@H]1CC[C@@H](Oc2ccc(C)c(F)c2-c2cc(Nc3cnc(C#N)cn3)n[nH]2)C1 [Example 3-20, 5-((5-(2-fluoro-3-methyl-6-(((1R,3R)-3-(methylamino)cyclopentyl)oxy)phenyl)-1H-pyrazol-3-yl)amino)pyrazine-2-carbonitrile]
18 | 50 to 100 | ≤ 10 | – | CN[C@@H]1CC[C@@H](Oc2cc(F)c(C)cc2-c2cc(Nc3cnc(C#N)cn3)n[nH]2)C1 [Example 3-21, 5-((5-(4-fluoro-5-methyl-2-(((1R,3R)-3-(methylamino)cyclopentyl)oxy)phenyl)-1H-pyrazol-3-yl)amino)pyrazine-2-carbonitrile]
19 | 100 to 500 | 10 to 100 | – | CN[C@@H]1CC[C@@H](Oc2ccc(Cl)c(F)c2-c2cc(Nc3cnc(C#N)cn3)n[nH]2)C1 [Example 3-22, 5-((5-(3-chloro-2-fluoro-6-(((1R,3R)-3-(methylamino)cyclopentyl)oxy)phenyl)-1H-pyrazol-3-yl)amino)pyrazine-2-carbonitrile]

Row | Compound | IC50 (p-CHK1 (Ser345); [2]) [nM] | IC50 [1] [nM] | IC50 (p-CHK1 (Ser345); 16 h at 37° C.) [nM]
20 | Cc1ccc(O[C@H]2C[C@H](N)C2)c(-c2cc(Nc3cnc(C#N)cn3)n[nH]2)n1 [Example 1-62, 5-((5-(3-((1r,3r)-3-aminocyclobutoxy)-6-methylpyridin-2-yl)-1H-pyrazol-3-yl)amino)pyrazine-2-carbonitrile] | 100 to 500 | 10 to 100 | –
21 | COc1c(F)ccc(O[C@H]2C[C@H](N)C2)c1-c1cc(Nc2cnc(C#N)cn2)n[nH]1 [Example 2-3, 5-((5-(6-((1r,3r)-3-aminocyclobutoxy)-3-fluoro-2-methoxyphenyl)-1H-pyrazol-3-yl)amino)pyrazine-2-carbonitrile] | 100 to 500 | 10 to 100 | –
22 | CN[C@H]1C[C@H](Oc2cccc(F)c2-c2cc(Nc3cnc(C#N)cn3)n[nH]2)C1 [Example 2-5, 5-((5-(2-fluoro-6-((1r,3r)-3-(methylamino)cyclobutoxy)phenyl)-1H-pyrazol-3-yl)amino)pyrazine-2-carbonitrile] | 100 to 500 | 10 to 100 | –
23 | COc1cccc(O[C@@H]2CC[C@H]2N)c1-c1cc(Nc2cnc(C#N)cn2)n[nH]1 [Example 3-2, 5-((5-(2-((1R,2R)-2-aminocyclobutoxy)-6-methoxyphenyl)-1H-pyrazol-3-yl)amino)pyrazine-2-carbonitrile] | ≤ 50 | ≤ 10 | –
24 | COc1cccc(O[C@H]2CC[C@@H]2N)c1-c1cc(Nc2cnc(C#N)cn2)n[nH]1 [Example 3-5, 5-((5-(2-((1S,2S)-2-aminocyclobutoxy)-6-methoxyphenyl)-1H-pyrazol-3-yl)amino)pyrazine-2-carbonitrile] | ≤ 50 | ≤ 10 | –
